Reference: patent publication US9949964B2, “Tesofensine compositions” (Saniona A/S, priority 2016, dated 2018)

Tests used:
[1] = Dissolution tests / dissolution profile; assay type: physicochemical
Experimental: The active ingredient dissolves from the coated tablets within 30 minutes. FIGS. 1, 2 and 3 show dissolution profiles for tesofensine compositions B and C with a dose strength of 0.25 mg, 0.5 mg and 1.0 mg.

[2] = Solubility of the active ingredient in granulating liquid; assay type: physicochemical; conditions: ethanol/mixtures compared to pure water or ethanol
From the text: Microcrystalline cellulose also was compatible with the active ingredient. Hydroxypropylcellulose was selected as binder due to its compatibility with the active ingredient. The amount of binder was adequate to provide sufficient resistance to crushing and plasticity of the granules. Crosscarmelllose sodium was selected as disintegrant as it is an effective disintegrant and is compatible with the active ingredient. The amount of croscarmellose sodium was sufficient to provide the desired disintegration. The amount of magnesium stearate selected was sufficient to avoid sticking to tableting tooling during compression. Ethanol was selected as co-solvent in the granulating liquid as ethanol evaporates easily for improved drying properties of the granulate.

[3] = cited from earlier work
[4] = Drug excipient compatibility study, chemical stability of binary mixtures of tesofensine and excipients; assay type: physicochemical
From the text: A compatibility study investigating the chemical stability of binary mixtures of tesofensine and pharmaceutically acceptable excipients has been conducted.

Row | Compound | Solubility [1] | Solubility of the active ingredient [2] | in-vivo half-life [3] | Compatibility of excipient with tesofensine [4] | Decomposition of tesofensine with excipient [4]
1 | CCOC[C@H]1C2CCC(C[C@@H]1c1ccc(Cl)c(Cl)c1)N2C (stereo partly drawn) [tesofensine, (3S,4R)-3-(3,4-dichlorophenyl)-4-(ethoxymethyl)-8-methyl-8-azabicyclo[3.2.1]octane] | readily soluble | increased | in the range of days | – | –
2 | O.OC[C@H]1O[C@@H](O[C@H]2[C@H](O)[C@@H](O)C(O)O[C@@H]2CO)[C@H](O)[C@@H](O)[C@H]1O (stereo partly drawn) [lactose, lactose monohydrate] | – | – | – | compatible | –
3 | magnesium stearate | – | – | – | Incompatibility | the extent of decomposition was low
